Experimental data published in patent US11311541B2 (priority 2014, dated 2022).
“Also recorded” adds a separate entry of the source. Read-outs that look alike come from different tables or passages of the source.

Assays:
[1] = biological target: T1, ROCK2 (Homo sapiens (Human), UniProt O75116); conditions: read-out: ROCK2 IC50
From the text: (§2) Dose response curves for Rho-kinase inhibition were derived from a Invitrogen Z′-LYTE™ Kinase Assay Kit (Invitrogen catalog number PV3793). Purified active ROCK1 and ROCK2 were obtained from Invitrogen (catalog numbers ROCK1, PV3691 and ROCK2, PV3759). The kit components include a coumarin and fluorescein labeled peptide based on myosin light chain 2 ([sequence]), a proprietary protease containing development reagent and a proprietary Stop buffer used to terminate the development reaction. The inhibitory activities of compounds are measured according to the manufactures protocol. […] This mixture is overlayed into a white 96-well half area plate and the reaction is initiated with the addition of 5 uM ATP for ROCK1 or 12 uM ATP for ROCK2. The assay proceeds at room temperature for 1 hour followed by the addition of development reagent, and further incubation for 1 hour at room temperature. STOP reagent is then added and the reaction and immediately the coumarin and fluorescein emission signals are read on a Tecan Infinite M1000 fluorescence plate reader (excitation: 400 nm; emission 445 and 520 nm, respectively). By comparing the emission ratios of the test samples against control samples, percent phosphorylation values are calculated and the concentration of inhibitor that produces ½ inhibition of kinase activity (IC50) is determined using Prism.

[2] = biological target: ROCK1 (Homo sapiens (Human), UniProt Q13464); format: biochemical
From the text: as §2

[3] = system: murine model of chronic GVHD; experiment: germinal centers and Tfh cells in spleen, murine model of chronic GVHD; format: in vivo, mouse; conditions: 150 mg/kg
Procedure: Fixed 6-μm spleen cryosections of mice were stained with rhodamine-conjugated peanut agglutinin (PNA; Vector Laboratories), and the size of the PNA-positive sections was measured and defined as germinal centers. For flow cytometric analysis of Tfh cells and GC B cells, single-cell suspensions from spleens were obtained and labeled with anti-CD4, anti-CXCR5, and anti-PD1 antibodies (eBioscience). Cells were analyzed on a BD LSRFortessa cell analyzer.

[4] = system: murine model of chronic GVHD; experiment: murine model of chronic GVHD, lung pathology
Procedure: On day −1, recipients received total-body irradiation (TBI) by X-ray (8.5 Gy). Donor bone marrow (BM) was T-cell depleted with anti-Thy 1.2 mAb followed by rabbit complement. On day 0, recipients received 10^7 BM cells with or without allogeneic splenocytes (10^6 cells). Weights of individual mice were recorded twice weekly. […] The analysis of pulmonary function was performed on day 28 (before the treatment) and on day 56. Anesthetized mice were weighed, and lung function was assessed by wholebody plethysmography with the Flexivent system (SCIREQ) and analyzed with Flexivent Version 5.1 software. Survival data were analyzed by life-table methods, and actuarial survival rates are shown. Group comparisons were made by log-rank test.
Lungs were inflated by infusion of 1 mL of optimal cutting temperature compound:PBS (3:1) intratracheally prior to harvest. Six-micrometer cryosections were fixed for 5 minutes in acetone and stained with mMasson's trichrome staining kit (Sigma-Aldrich) for detection of collagen deposition. Collagen deposition was quantified on trichrome-stained sections as a ratio of area of blue staining to area of total staining by use of the Adobe mPhotoshop CS3 analysis tool (Adobe Systems). For measuring Ig deposition, acetone-fixed 6-m lung cryosections were blocked with horse serum and streptavidin-biotin blocking kit (Vector) and stained with fluorescein isothiocyanate (FITC)-labeled anti-mouse-Ig (BD Pharmingen). Antibody deposition was quantified by area of Ig staining per 100-μm section.
Mice were treated as described above, except that twelve animals per group were tested. […] (n=3/group). Spleens were also collected for analysis on day 56. […] Pulmonary function tests and analysis of body weight were performed as described above.

[5] = system: STAT3 phosphorylation; experiment: STAT3 phosphorylation in T cells; format: cell-based, human
Procedure: STAT3 plays a critical role in Th17 differentiation via regulation of RORγt expression and direct binding to the IL-17 and IL-21 promoters. […] In a different experiment, cells were cultured under Th17-skewing conditions for 5 days and then treated with the ROCK2 selective inhibitor for 3 hours.

[6] = system: TGF-β-induced STAT3, MLC and SMAD2/3 phosphorylation; experiment: TGF-β-induced phosphorylation in Tregs; format: cell-based
From the text: (FIG. 16). TGF-3 is involved in development and function of both Th17 and Treg subsets of T cells. However, when Tregs are regulated in Smad2/3-dependent signaling mechanism, TGF-β regulates Th17 cells in Smad2/3 independent manner that is considered as non-canonical TGF-β-induced signaling.

[7] = system: CD4+ human T cells; experiment: T cell proliferation in response to TCR stimulation in vitro; format: cell-based
From the text: (§1) Activation of resting T cells, resulting in cytokine secretion and proliferation, involves two distinct signals from antigen-presenting cells (APCs), mimicked by co-stimulation of the T cell receptor (TCR)/CD3 complex and the CD28 receptor.

[8] = system: CD4+ T cells from RA patients; experiment: cytokine secretion ex vivo in CD4+ T cells from RA patients; format: cell-based, human
From the text: Among RA patients, inhibition of IFN-γ production was correlated with disease activity score (DAS). (FIG. 12B).

[9] = system: human CD4+ T cells; experiment: Foxp3+ cells among CD4+ T cells; format: cell-based; conditions: 5 days of Th17 skewing activation
From the text: Foxp3 is a lineage-specific transcription factor for Tregs and is crucial to the development and inhibitory function of these cells. STAT5 signaling positively regulates the induction and stabilization of Foxp3 expression in T cells in vitro and in vivo. […] (FIG. 14).

[10] = system: STAT3/STAT5 phosphorylation, RORγt, IRF4, Bcl6 in spleens; experiment: Western blot of spleen cells, murine model of cGVHD; format: in vivo, mouse; conditions: treatment days 28-56
Procedure: Mice were treated as described above, except that twelve animals per group were tested. […] (n=3/group). Spleens were also collected for analysis on day 56. […] Single cell suspensions were prepared from the isolated spleens. Cells were lysed in RIPA buffer and analyzed for protein content. Sample buffer was then added, and, after boiling, the samples, containing equal amounts of proteins, were separated by SDS-PAGE gel electrophoresis and transferred to a nitrocellulose membrane. Membranes were blocked and probed with specific antibodies overnight. Actin was used as a loading control. Anti-pSTAT3 pSTAT5 and Bcl6 antibodies were purchased from Cell Signaling Technologies (Beverly, Mass.). Anti-IRF4 (sc-48338) and anti-RORγt (14-6988) were obtained from Santa Cruz Biotechnology Inc. and eBioscience respectively. Immunoreactive protein bands were visualized using an HRP-conjugated secondary antibodies and an enhanced ECL system.

[11] = plasma KD025 concentration in murine chronic GVHD; format: in vivo, mouse; conditions: day 56, 1-hr pre-dose and 1-hr post-dose
Procedure: Mice were treated as described above, except that twelve animals per group were tested. […] (n=3/group).

[12] = system: CD4+CD25+ human Tregs; experiment: Treg inhibition of IL-17 secretion in CD4+CD25- T cells; format: cell-based; conditions: Tregs treated 3 hours; Treg:Teff 1:4 and 1:9
[13] = system: sclerodermatous cGVHD mouse model; experiment: sclerodermatous cGVHD mouse model (B10.D2 into BALB/c); format: in vivo
From the text: In this model, BALB/c (H-2^d) mice received 775 cGy of total body radiation on day 0 and were transplanted with bone marrow and T-cells from B10.D2 (H-2^d) mice. […] The GVHD score in this model combined changes in weight lost, posture, activity, fur texture, and skin integrity (FIG. 26). Sclerodermatous cGVHD mice were further analyzed as depicted in FIGS. 27-35.

[14] = system: PBMCs of treated patients; experiment: ex vivo stimulation of cytokine production in PBMCs isolated from treated patients; set-up: species or system human; conditions: 120 mg/day, days 1 and 8-14; anti-CD3/CD28 72 hours
Procedure: Peripheral blood mononuclear cells (PBMCs) were collected at the start and end of the trial and stimulated by plating on immobilized anti-CD3/CD28 antibodies for 72 hours, and levels of IL-17, IL-21, and IFN-γ were measured. […] No effect on IFN-γ was observed.

[15] = system: CD4+ human T cells; experiment: cytokine secretion of anti-CD3/CD28 stimulated CD4+ T cells in vitro; format: cell-based; conditions: anti-CD3/CD28 stimulation
From the text: as §1

[16] = system: cytokine secretion; experiment: cytokine secretion, FIG. 10; format: cell-based
[17] = biological target: T1, ROCK2; experiment: biochemical
From the text: as §2

[18] = Table 3 (Example 203, method not given)
[19] = day 98, 42 days after last administration
[20] = 2 RA patients, intracellular staining
[21] = RA patients, anti-CD3/CD28, ex vivo

ROCK1, sequence (Q13464 1-535): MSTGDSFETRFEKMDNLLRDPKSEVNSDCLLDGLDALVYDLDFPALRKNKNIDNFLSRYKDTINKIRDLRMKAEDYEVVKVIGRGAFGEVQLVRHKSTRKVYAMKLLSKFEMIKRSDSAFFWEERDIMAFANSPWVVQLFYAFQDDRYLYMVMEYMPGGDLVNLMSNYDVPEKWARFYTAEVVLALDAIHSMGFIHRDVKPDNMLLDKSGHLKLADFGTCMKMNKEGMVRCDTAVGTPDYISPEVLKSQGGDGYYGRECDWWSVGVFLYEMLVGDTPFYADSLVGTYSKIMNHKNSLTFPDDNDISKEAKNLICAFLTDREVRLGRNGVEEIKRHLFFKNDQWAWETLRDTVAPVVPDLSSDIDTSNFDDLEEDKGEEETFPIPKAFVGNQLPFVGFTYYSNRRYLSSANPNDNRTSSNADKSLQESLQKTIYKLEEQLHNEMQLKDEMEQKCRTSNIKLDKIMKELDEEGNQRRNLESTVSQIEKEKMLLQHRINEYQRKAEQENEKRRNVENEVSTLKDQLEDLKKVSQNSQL
T1 sequence (O75116 1-552): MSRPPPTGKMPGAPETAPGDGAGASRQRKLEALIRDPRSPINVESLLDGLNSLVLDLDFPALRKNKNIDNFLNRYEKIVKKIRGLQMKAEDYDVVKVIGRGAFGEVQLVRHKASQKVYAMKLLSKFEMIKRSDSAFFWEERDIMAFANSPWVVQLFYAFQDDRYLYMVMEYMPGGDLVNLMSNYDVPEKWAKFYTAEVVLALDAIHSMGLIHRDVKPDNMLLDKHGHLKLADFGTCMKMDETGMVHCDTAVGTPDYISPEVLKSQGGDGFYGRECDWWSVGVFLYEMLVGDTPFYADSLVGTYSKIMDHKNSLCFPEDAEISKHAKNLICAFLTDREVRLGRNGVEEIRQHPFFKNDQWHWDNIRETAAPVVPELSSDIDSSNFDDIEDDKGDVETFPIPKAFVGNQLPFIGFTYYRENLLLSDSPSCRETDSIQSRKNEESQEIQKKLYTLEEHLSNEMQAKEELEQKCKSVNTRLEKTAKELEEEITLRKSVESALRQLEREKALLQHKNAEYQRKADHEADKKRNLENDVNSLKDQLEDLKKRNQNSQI

In the case of `COc1ccc2c(c1)CN(c1nc(C)c(C)c(Nc3ccc4[nH]ncc4c3)n1)C2` [Example 196, N-(2-(5-methoxyisoindolin-2-yl)-5,6-dimethylpyrimidin-4-yl)-1H-indazol-5-amine], the IC50 [1, 18] is reported as greater than 0.01 µM.

`COc1ccc2c(c1)CN(c1nccc(Nc3ccc(-c4ccncc4)cc3)n1)C2` [Example 200, 2-(5-methoxyisoindolin-2-yl)-N-(4-(pyridin-4-yl)phenyl)pyrimidin-4-amine] showed an IC50 [2, 18] greater than 10 µM.

In the case of `c1cc(Nc2ccc3[nH]ncc3c2)nc(N2CCc3sccc3C2)n1` [Example 192, N-(2-(6,7-dihydrothieno[3,2-c]pyridin-5(4H)-yl)pyrimidin-4-yl)-1H-indazol-5-amine], the IC50 [2, 18] is reported as greater than 10 µM.

With `CC(C)NC(=O)COc1cccc(-c2nc(Nc3ccc4[nH]ncc4c3)c3ccccc3n2)c1` [KD025] the “numbers of CD4+PD1HiCXCR5 Tfh cells in spleen” value [3] was “reversed”, the “numbers of germinal centers in spleen” value [3] was “reversed” and the “pulmonary function (resistance, elastance, compliance)” value ([4]; 100 mg/kg i.p. daily from day 28, tested day 56) was “significantly improved and normalized pulmonary function”. For the same compound, the “antibody deposition in lungs” value ([4]; 150 mg/kg) was “essentially indistinguishable from samples from uninduced mice”, the “collagen deposition in lungs” value ([4]; 150 mg/kg) was “essentially indistinguishable from samples from uninduced mice” and the “effect on cGVHD lung pathology, dose dependence” value ([4]; 30, 100, 150 mg/kg) was “dose dependent”. For the same compound, the body weight ([4]; Example 216, FIG. 23) was “no effect”, the survival rates ([4]; FIG. 18) was “no effect” and the body weight ([4]; FIG. 18, 19) was “no effect”. For the same compound, the lung resistance [4, 19] was “dose-dependent decrease”, the respiratory function [4, 19] was “long-lasting improvement; also recorded: Partial improvement” and the “phosphorylation of IFR4 and RORγT” value ([5]; separate experiment, FIG. 11C) was “reduced phosphorylation”. The “phosphorylation of STAT3” value ([5]; two designs: pre-treatment then anti-CD3/CD28, Th17-skewing 5 days then 3 hours treatment) was “significantly down-regulates”, the “TGF-β-induced MLC phosphorylation” value [6] was “down-regulates” and the “TGF-β-induced STAT3 phosphorylation” value [6] was “down-regulates”. The “phosphorylation of SMAD2/3” value [6] was “remains intact”, the “proliferation in response to TCR stimulation” value [7] was “down-regulated their ability to proliferate” and the “frequency of IFN-γ-producing cells” value [8, 20] was “significantly reduced the frequencies”. The “frequency of IL-17-producing cells” value [8, 20] was “significantly reduced the frequencies”, the IFN-γ secretion [8, 21] was “significantly down-regulated” and the IL-17 secretion [8, 21] was “significantly down-regulated”. For the same compound, the IL-21 secretion [8, 21] was “significantly down-regulated”, the “percentage of Foxp3+ cells” value [9] was “significantly increased” and the “STAT3 phosphorylation in spleens” value [10] was “significant reduction”. The “STAT5 phosphorylation in spleens” value [10] was “concurrent increase”, the “protein levels of RORγt, IRF4 and Bcl6 in spleenocytes” value [10] was “dose-dependent decrease” and the “plasma KD025 concentrations” value [11] was “measurable and generally dose dependent”. The “ability of Tregs to suppress IL-17 secretion in CD4+CD25- effector T cells” value [12] was “significantly increased”, the “cervical LN T Cell IFNg” value ([13]; FIG. 32) was “decreased” and the “development of chronic sclerodermatous cGVHD” value ([13]; i.p. once daily days 19-47) was “blocked the development”. The GVHD score ([13]; i.p. once daily days 19-47, weight lost, posture, activity, fur texture, skin integrity) was “significantly decreased”, the “induction of IL-17 secretion in PBMCs” value [14] was “significantly inhibited in PBMCs isolated from four of five patients” and the “induction of IL-21 secretion in PBMCs” value [14] was “significantly inhibited in PBMCs from all five patients”. The IFN-γ secretion [15] was “less robust and significant only at high dose (10 μM)”, the IL-2 secretion [15] was “observed only at the highest concentration (10 μM)” and the IL-17 secretion [15] was “significantly inhibited”. For the same compound, the IL-21 secretion [15] was “significantly inhibited”.

With `COc1ccc2c(c1)CN(c1ccnc(Nc3ccc4[nH]ncc4c3)n1)C2` [Example 188, N-(4-(5-methoxyisoindolin-2-yl)pyrimidin-2-yl)-1H-indazol-5-amine] the IC50 [2, 18] was greater than 10 µM.

`c1cc2c(cn1)CN(c1nccc(Nc3ccc4[nH]ncc4c3)n1)C2` [Example 195, N-(2-(1H-pyrrolo[3,4-c]pyridin-2(3H)-yl)pyrimidin-4-yl)-1H-indazol-5-amine] showed an IC50 [2, 18] greater than 10 µM.

Compound `CC(C)NC(=O)COc1cccc(-c2nc(Nc3ccc4[nH]ncc4c3)cc(C(F)(F)F)n2)c1` [Example 169] has an IC50 ([1]; Table 2, 12 uM ATP) greater than 10 µM and an IC50 ([2]; Table 2, 5 uM ATP) greater than 10 µM.

In the case of `COc1ccc2c(c1)CN(c1nccc(Nc3ccc4[nH]ncc4c3)n1)C2` [Example 181, N-(2-(5-methoxyisoindolin-2-yl)pyrimidin-4-yl)-1H-indazol-5-amine], the “secretion of IL-21” value ([16]; FIG. 10 Panel A) is reported as “inhibits” and the “inhibition of IL-17 secretion” value ([16]; FIG. 10 Panel B) is reported as “dose-dependent”.

In the case of `COc1ccc2c(c1)CCN(c1nccc(Nc3ccc4[nH]ncc4c3)n1)C2` [Example 191, N-(2-(6-methoxy-3,4-dihydroisoquinolin-2(1H)-yl)pyrimidin-4-yl)-1H-indazol-5-amine], the IC50 [2, 18] is reported as greater than 10 µM.

Work on `COc1ccc2c(c1)CN(c1cc(Nc3ccc4[nH]ncc4c3)ncn1)C2` [Example 193, N-(6-(5-methoxyisoindolin-2-yl)pyrimidin-4-yl)-1H-indazol-5-amine] yielded an IC50 [2, 18] greater than 10 µM.

With `c1ccc2c(c1)CN(c1nccc(Nc3ccc4[nH]ncc4c3)n1)C2` [Example 182, N-(2-(isoindolin-2-yl)pyrimidin-4-yl)-1H-indazol-5-amine] the IC50 [2, 18] was greater than 10 µM.

Work on `CC(N)c1cccc(-c2nccc(Nc3ccc4[nH]ncc4c3)n2)c1` (stereo not drawn) [Example 147, N-(2-(3-(1-aminoethyl)phenyl)pyrimidin-4-yl)-1H-indazol-5-amine] yielded an IC50 ([1]; Table 2, 12 uM ATP) greater than 5.5 µM and an IC50 ([2]; Table 2, 5 uM ATP) greater than 2 µM.

Work on `COc1ccc2c(c1)CN(c1cc(Nc3ccc4[nH]ncc4c3)nc(C)n1)C2` [Example 194, N-(6-(5-methoxyisoindolin-2-yl)-2-methylpyrimidin-4-yl)-1H-indazol-5-amine] yielded an IC50 [17] of 0.13 to 0.18 µM and an IC50 [2, 18] greater than 10 µM.

`Clc1ccc2c(c1)CN(c1nccc(Nc3ccc4[nH]ncc4c3)n1)C2` [Example 190, N-(2-(5-chloroisoindolin-2-yl)pyrimidin-4-yl)-1H-indazol-5-amine] gave an IC50 [2, 18] greater than 10 µM.
